Series [1] concerns A. baumannii ATCC 19606. Briefly: microbe, parasite or virus in culture. As to conditions: ATCC 19606, 18 h. On the procedure: (§1) All compounds synthesised in this study were assessed for their minimum inhibitory concentrations (MIC, mg/L) by broth microdilution assay against five antibiotic-sensitive and resistant ATCC reference strains covering the Gram-negative ESKAPE pathogens (Escherichia coli, Klebsiella pneumoniae, A. baumannii, and P. aeruginosa) (Table 1, Table 2 and Table 3). Staphylococcus aureus was also included as a representative Gram-positive bacterial strain. […] Polymyxin B 1, colistin 2, vancomycin and gentamicin were used as positive inhibitor comparator compounds. Compounds were counter-screened against human proximal tubular epithelial cells (HK-2), using LDH release as a general indicator of cellular toxicity.

The subject of series [2] is E. coli ATCC 25922. Put plainly: microbe, parasite or virus in culture. The settings on record: ATCC 25922, 18 h. On the procedure: as §1
Series [3] concerns K. pneumoniae ATCC 13833. Briefly: microbe, parasite or virus in culture. As to conditions: ATCC 13833, 18 h. How it is done: as §1
Series [4] has as its system K. pneumoniae ATCC 700603. Briefly: microbe, parasite or virus in culture. The settings on record: ATCC 700603, 18 h. How it is done: as §1
Series [5] concerns K. pneumoniae BAA 2146. Put plainly: microbe, parasite or virus in culture. As to conditions: BAA 2146, 18 h. On the procedure:
as §1

The test system of series [6] is P. aeruginosa ATTC 27853. Briefly: microbe, parasite or virus in culture. As to conditions: ATTC 27853, 18 h. On the procedure:
as §1

In series [7] the test system is S. aureus ATCC 25923. Briefly: microbe, parasite or virus in culture. As to conditions: ATCC 25923, 18 h. How it is done:
as §1

A short description of series [8]: in vitro. As to conditions: human. How it is done:
as §1
Cytotoxicity to human kidney proximal tubular epithelial cell line, HK-2 (ATCC CRL-2190, sourced from ATCC; Manassas, VA, USA) was determined using the LDH assay as previously described. In brief, HK-2 cells were seeded as 2000 cells/well in black-walled clear bottom 384-well tissue culture treated plates (Corning, catalogue No. 3712) in DMEM/F12 medium (Gibco® 10565-042) containing 10% of Fetal Bovine Serum (FBS, Gibco® 10099-141) and incubated for 24 h at 37 °C, 5% CO2. Compounds were then added into each well with a concentration series from 300 µM to 2.3 µM in 2-fold dilutions. Colistin and polymyxin B were used as controls and tested at a final concentration range of 1 mM to 7.8 µM. The cells were incubated with the compounds for 24 h at 37 °C, 5% CO2. After the incubation, 5 µL of culture medium was added to 45 µL of LDH assay buffer (Biovision, K313-500) and incubated for 30 min at room temperature. The absorbance (ABS) was then read at 450 nm using a Polar Star Omega plate reader. The data was analysed by Prism 6 software (GraphPad Software, La Jolla, CA, USA). Results were calculated using the following equation: cytotoxicity %= (ABSsamples − ABSuntreated/ABS1%Triton X-100 − ABSuntreated) × 100.

Values after ≈ are worked out from the molar mass of the structure shown. *1 amine or outer side, *2 acyl side, *3 side chain or, on linkers, in order; H or OH if unused. Where a SMILES comes first, the peptide text is derived from it. Bridges are numbered along the chain shown (N, C = ends). [ ]: non-standard residue; d: D form. The star is where a group is joined. Biphenylcarbonyl(4'-Bu) = CCCCc1ccc(-c2ccc(C(=O)*)cc2)cc1; X1 = CCCCCC1CCC(C(=O)*)CC1; NH(2-ClPh) = Clc1ccccc1N*; dDab = NCC[C@@H](N)C(=O)O; Octanoyl = CCCCCCCC(=O)*; Dab = NCC[C@H](N)C(=O)O; CO = O=C([*:1])[*:2] A value given as a limit tells only on which side of the number the result lay.

Consider `CCCCCCCC(=O)N[C@@H](CCN)C(=O)N[C@H](C(=O)N[C@H]1CCNC(=O)[C@H]([C@@H](C)O)NC(=O)[C@H](CCN)NC(=O)[C@H](CCN)NC(=O)[C@H](CC(C)C)NC(=O)[C@@H](Cc2ccccc2)NC(=O)[C@H](CCN)NC1=O)[C@@H](C)O` [Compound 9] (Octanoyl-[Dab]T[Dab][Dab][dF]L[Dab][Dab]T; lactam 3-C), for which, in series [1], the “MIC A. baumannii ATCC 19606” value was >32 µg/mL. Further, the “MIC E. coli ATCC 25922” value in series [2] was >32 µg/mL. In addition, the “MIC K. pneumoniae ATCC 13833” value in series [3] is >32 µg/mL. For the same compound, the “MIC K. pneumoniae ATCC 700603” value in series [4] is >32 µg/mL. For the same compound, in series [5], the “MIC K. pneumoniae BAA 2146” value was >32 µg/mL. The “MIC P. aeruginosa ATTC 27853” value in series [6] was 32 µg/mL (≈ 29.4 µM). The “MIC S. aureus ATCC 25923” value in series [7] is >32 µg/mL. In series [8], this compound had a CC50 at 24 h of 79 µM.
In the case of `CC(C)C[C@@H]1NC(=O)[C@@H](Cc2ccccc2)NC(=O)[C@H](CCN)NC(=O)[C@@H](NC(=O)[C@H](CCN)NC(=O)[C@@H](NC(=O)[C@H](CCN)NC(=O)Nc2ccccc2Cl)[C@@H](C)O)CCNC(=O)[C@H]([C@@H](C)O)NC(=O)[C@H](CCN)NC(=O)[C@H](CCN)NC1=O` [Compound 16] ({NH(2-ClPh)-CO}-[Dab]T[Dab][Dab][Dab][dF]L[Dab][Dab]T; lactam 4-C), the CC50 at 24 h in series [8] is > 300 µM.
The same measure, in the same setting: the value for `CCCCc1ccc(-c2ccc(C(=O)N[C@H](C(=O)N[C@H](CCN)C(=O)N[C@H]3CCNC(=O)[C@H]([C@@H](C)O)NC(=O)[C@H](CCN)NC(=O)[C@H](CCN)NC(=O)[C@H](CC(C)C)NC(=O)[C@@H](Cc4ccccc4)NC(=O)[C@H](CCN)NC3=O)[C@@H](C)O)cc2)cc1` [Compound 23] ({Biphenylcarbonyl(4'-Bu)}-T[dDab][Dab][Dab][dF]L[Dab][Dab]T; lactam 3-C) was 29 µM.
With `CCCCCC1CCC(C(=O)N[C@H](C(=O)N[C@H](CCN)C(=O)N[C@H]2CCNC(=O)[C@H]([C@@H](C)O)NC(=O)[C@H](CCN)NC(=O)[C@H](CCN)NC(=O)[C@H](CC(C)C)NC(=O)[C@@H](Cc3ccccc3)NC(=O)[C@H](CCN)NC2=O)[C@@H](C)O)CC1` (stereo partly shown) [Compound 24] (X1-T[dDab][Dab][Dab][dF]L[Dab][Dab]T; lactam 3-C), the “MIC A. baumannii ATCC 19606” value in series [1] was determined as 32 µg/mL (≈ 28 µM). Moreover, in series [2], the “MIC E. coli ATCC 25922” value was 4 µg/mL (≈ 3.5 µM). Further, the “MIC K. pneumoniae ATCC 13833” value in series [3] was >32 µg/mL. Besides, the “MIC K. pneumoniae ATCC 700603” value in series [4] was 8 µg/mL (≈ 7 µM). For the same compound, in series [5], the “MIC K. pneumoniae BAA 2146” value came out at 4 µg/mL (≈ 3.5 µM). In series [6], the “MIC P. aeruginosa ATTC 27853” value came to 4 µg/mL (≈ 3.5 µM). This compound registered a CC50 at 24 h in series [8] of 60 µM.
In the case of `CCCCCCCC(=O)N[C@@H](CCN)C(=O)N[C@H](C(=O)N[C@H](CO)C(=O)N[C@H]1CCNC(=O)[C@H]([C@@H](C)O)NC(=O)[C@H](CCN)NC(=O)[C@H](CCN)NC(=O)[C@H](CC(C)C)NC(=O)[C@@H](Cc2ccccc2)NC(=O)[C@H](CCN)NC1=O)[C@@H](C)O` [Compound 34] (Octanoyl-[Dab]T[dS][Dab][Dab][dF]L[Dab][Dab]T; lactam 4-C), in series [3], the “MIC K. pneumoniae ATCC 13833” value worked out at 0.5 µg/mL (≈ 0.425 µM). In series [4], the “MIC K. pneumoniae ATCC 700603” value is 2 µg/mL (≈ 1.7 µM). In series [5], the “MIC K. pneumoniae BAA 2146” value came out at 16 µg/mL (≈ 13.6 µM). Moreover, in series [7], the “MIC S. aureus ATCC 25923” value is >32 µg/mL. In series [8], the CC50 at 24 h turned out to be 139 µM.
On to `CCCCCCCC(=O)N[C@@H](CCN)C(=O)N[C@H](C(=O)NCC(=O)N[C@H]1CCNC(=O)[C@H]([C@@H](C)O)NC(=O)[C@H](CCN)NC(=O)[C@H](CCN)NC(=O)[C@H](CC(C)C)NC(=O)[C@@H](Cc2ccccc2)NC(=O)[C@H](CCN)NC1=O)[C@@H](C)O` [Compound 50] (Octanoyl-[Dab]TG[Dab][Dab][dF]L[Dab][Dab]T; lactam 4-C), for which the “MIC K. pneumoniae ATCC 13833” value in series [3] was 0.5 µg/mL (≈ 0.436 µM). Further, in series [7], the “MIC S. aureus ATCC 25923” value was >32 µg/mL. The CC50 at 24 h in series [8] is > 300 µM.

For the origin of these results see article PMC6384738, “Structure-Function Studies of Polymyxin B Lipononapeptides” (Molecules, 2019).
